Measured values: PubChem BioAssay (NCI)
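The concentration for 50% growth inhibition is given as GI50. TGI is the concentration that stops growth completely.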

Tests used:
Experiment in all cases: NCI anticancer screen, dose series, 384-well format
NCI-H226 lung = test system: NCI-H226 lung
OVCAR-5 ovarian = test system: OVCAR-5 ovarian
ACHN renal = test system: ACHN renal
HS 578T breast = test system: HS 578T breast
SN12C renal = test system: SN12C renal
RPMI-8226 leukemia = test system: RPMI-8226 leukemia
MALME-3M melanoma = test system: MALME-3M melanoma
OVCAR-3 ovarian = test system: OVCAR-3 ovarian
MCF7 breast = test system: MCF7 breast
K-562 leukemia = test system: K-562 leukemia
MDA-MB-231 breast = test system: MDA-MB-231 breast
RXF 393 renal = test system: RXF 393 renal
MOLT-4 leukemia = test system: MOLT-4 leukemia
IGROV1 ovarian = test system: IGROV1 ovarian
HCT-15 colon = test system: HCT-15 colon
NCI-H322M lung = test system: NCI-H322M lung
OVCAR-4 ovarian = test system: OVCAR-4 ovarian
HCC-2998 colon = test system: HCC-2998 colon
UACC-257 melanoma = test system: UACC-257 melanoma
786-0 renal = test system: 786-0 renal
A498 renal = test system: A498 renal
CAKI-1 renal = test system: CAKI-1 renal
SK-OV-3 ovarian = test system: SK-OV-3 ovarian
HOP-92 NSCLC = test system: HOP-92 NSCLC
NCI/ADR-RES ovarian = test system: NCI/ADR-RES ovarian
SW-620 colon = test system: SW-620 colon
HL-60(TB) leukemia = test system: HL-60(TB) leukemia
SR leukemia = test system: SR leukemia
NCI-H23 lung = test system: NCI-H23 lung
M14 melanoma = test system: M14 melanoma
SF-295 CNS = test system: SF-295 CNS
U251 glioblastoma = test system: U251 glioblastoma
TK-10 renal = test system: TK-10 renal
MDA-MB-435 melanoma = test system: MDA-MB-435 melanoma
HOP-62 NSCLC = test system: HOP-62 NSCLC
COLO 205 colon = test system: COLO 205 colon
SK-MEL-5 melanoma = test system: SK-MEL-5 melanoma
SK-MEL-2 melanoma = test system: SK-MEL-2 melanoma
A549 NSCLC = test system: A549 NSCLC
SF-268 CNS = test system: SF-268 CNS
KM12 colon = test system: KM12 colon
BT-549 breast = test system: BT-549 breast
HCT-116 colon = test system: HCT-116 colon
OVCAR-8 ovarian = test system: OVCAR-8 ovarian
UO-31 renal = test system: UO-31 renal
SNB-75 CNS = test system: SNB-75 CNS
NCI-H522 lung = test system: NCI-H522 lung
NCI-H460 NSCLC = test system: NCI-H460 NSCLC
HT29 colon = test system: HT29 colon
SK-MEL-28 melanoma = test system: SK-MEL-28 melanoma
UACC-62 melanoma = test system: UACC-62 melanoma
EKVX NSCLC = test system: EKVX NSCLC
MDA-MB-468 breast = test system: MDA-MB-468 breast
PC-3 prostate = test system: PC-3 prostate
SNB-19 CNS = test system: SNB-19 CNS
LOX IMVI melanoma = test system: LOX IMVI melanoma
T-47D breast = test system: T-47D breast
SF-539 CNS = test system: SF-539 CNS
DU-145 prostate = test system: DU-145 prostate

Structure (SMILES): C[C@@H]1C[C@H](N)C[C@H](c2ccncc2NC(=O)c2ccc(F)c(-c3c(F)cccc3F)n2)C1
- GI50 (NCI-H226 lung): 4.79 µM
- TGI (NCI-H226 lung): 20.8 µM
- GI50 (OVCAR-5 ovarian): 11.7 µM
- TGI (OVCAR-5 ovarian): 24 µM
- GI50 (ACHN renal): 13.8 µM
- TGI (ACHN renal): 26.9 µM
- GI50 (HS 578T breast): 10.2 µM
- TGI (HS 578T breast): 21.9 µM
- GI50 (SN12C renal): 14.4 µM
- TGI (SN12C renal): 27.6 µM
- GI50 (RPMI-8226 leukemia): 0.0942 µM
- TGI (RPMI-8226 leukemia): 0.674 µM
- GI50 (MALME-3M melanoma): 1.49 µM
- TGI (MALME-3M melanoma): 3.11 µM
- GI50 (OVCAR-3 ovarian): 11.6 µM
- TGI (OVCAR-3 ovarian): 23.9 µM
- GI50 (MCF7 breast): 7.02 µM
- TGI (MCF7 breast): 20.3 µM
- GI50 (K-562 leukemia): 2.17 µM
- TGI (K-562 leukemia): 10.9 µM
- GI50 (MDA-MB-231 breast): 13.3 µM
- TGI (MDA-MB-231 breast): 26.1 µM
- GI50 (RXF 393 renal): 3.18 µM
- TGI (RXF 393 renal): 11.9 µM
- GI50 (MOLT-4 leukemia): 3.21 µM
- TGI (MOLT-4 leukemia): 12.5 µM
- GI50 (IGROV1 ovarian): 7.37 µM
- TGI (IGROV1 ovarian): 19.9 µM
- GI50 (HCT-15 colon): 9.74 µM
- TGI (HCT-15 colon): 23.8 µM
- GI50 (NCI-H322M lung): 14.4 µM
- TGI (NCI-H322M lung): 27.5 µM
- GI50 (OVCAR-4 ovarian): 17.2 µM
- TGI (OVCAR-4 ovarian): 31.1 µM
- GI50 (HCC-2998 colon): 1.9 µM
- TGI (HCC-2998 colon): 4.02 µM
- GI50 (UACC-257 melanoma): 1.65 µM
- TGI (UACC-257 melanoma): 3.03 µM
- GI50 ([…]-0 renal): 6.99 µM
- TGI (786-0 renal): 19.5 µM
- GI50 (A498 renal): 4.81 µM
- TGI (A498 renal): 18.1 µM
- GI50 (CAKI-1 renal): 3.78 µM
- TGI (CAKI-1 renal): 17.2 µM
- GI50 (SK-OV-3 ovarian): 14.3 µM
- TGI (SK-OV-3 ovarian): 27.4 µM
- GI50 (HOP-92 NSCLC): 6.4 µM
- TGI (HOP-92 NSCLC): 19.7 µM
- GI50 (NCI/ADR-RES ovarian): 16.7 µM
- TGI (NCI/ADR-RES ovarian): 30.6 µM
- GI50 (SW-620 colon): 14.3 µM
- TGI (SW-620 colon): 27.4 µM
- GI50 (HL-60(TB) leukemia): 3.6 µM
- TGI (HL-60(TB) leukemia): 16.3 µM
- GI50 (SR leukemia): 1.76 µM
- TGI (SR leukemia): 3.56 µM
- GI50 (NCI-H23 lung): 14.5 µM
- TGI (NCI-H23 lung): 27.7 µM
- GI50 (M14 melanoma): 3.43 µM
- TGI (M14 melanoma): 7.63 µM
- GI50 (SF-295 CNS): 16.9 µM
- TGI (SF-295 CNS): 30.6 µM
- GI50 (U251 glioblastoma): 10.5 µM
- TGI (U251 glioblastoma): 22.4 µM
- GI50 (TK-10 renal): 12.5 µM
- TGI (TK-10 renal): 25.1 µM
- GI50 (MDA-MB-435 melanoma): 11.5 µM
- TGI (MDA-MB-435 melanoma): 24 µM
- GI50 (HOP-62 NSCLC): 12.8 µM
- TGI (HOP-62 NSCLC): 25.5 µM
- GI50 (COLO 205 colon): 4.64 µM
- TGI (COLO 205 colon): 11.9 µM
- GI50 (SK-MEL-5 melanoma): 1.74 µM
- TGI (SK-MEL-5 melanoma): 4.28 µM
- GI50 (SK-MEL-2 melanoma): 13.4 µM
- TGI (SK-MEL-2 melanoma): 26.2 µM
- GI50 (A549 NSCLC): 12.5 µM
- TGI (A549 NSCLC): 25.5 µM
- GI50 (SF-268 CNS): 5.86 µM
- TGI (SF-268 CNS): 15.9 µM
- GI50 (KM12 colon): 10.4 µM
- TGI (KM12 colon): 22.3 µM
- GI50 (BT-549 breast): 5.53 µM
- TGI (BT-549 breast): 19.2 µM
- GI50 (HCT-116 colon): 7.07 µM
- TGI (HCT-116 colon): 19.9 µM
- GI50 (OVCAR-8 ovarian): 14.3 µM
- TGI (OVCAR-8 ovarian): 27.5 µM
- GI50 (UO-31 renal): 13.5 µM
- TGI (UO-31 renal): 26.4 µM
- GI50 (SNB-75 CNS): 7.54 µM
- TGI (SNB-75 CNS): 21.2 µM
- GI50 (NCI-H522 lung): 12.5 µM
- TGI (NCI-H522 lung): 25.1 µM
- GI50 (NCI-H460 NSCLC): 6.02 µM
- TGI (NCI-H460 NSCLC): 17.2 µM
- GI50 (HT29 colon): 5.3 µM
- TGI (HT29 colon): 14.9 µM
- GI50 (SK-MEL-28 melanoma): 5.54 µM
- TGI (SK-MEL-28 melanoma): 10.8 µM
- GI50 (UACC-62 melanoma): 8.71 µM
- TGI (UACC-62 melanoma): 22 µM
- GI50 (EKVX NSCLC): 6.36 µM
- TGI (EKVX NSCLC): 19.3 µM
- GI50 (MDA-MB-468 breast): 3.42 µM
- TGI (MDA-MB-468 breast): 10.2 µM
- GI50 (PC-3 prostate): 4.76 µM
- TGI (PC-3 prostate): 17.3 µM
- GI50 (SNB-19 CNS): 15.8 µM
- TGI (SNB-19 CNS): 29.3 µM
- GI50 (LOX IMVI melanoma): 4.22 µM
- TGI (LOX IMVI melanoma): 15.6 µM
- GI50 (T-47D breast): 4.76 µM
- TGI (T-47D breast): 17.7 µM
- GI50 (SF-539 CNS): 7.93 µM
- TGI (SF-539 CNS): 20.8 µM
- GI50 (DU-145 prostate): 15.7 µM
- TGI (DU-145 prostate): 29.3 µM
